Measured values published in ChEMBL document CHEMBL4431299 (Medchemcomm, 2016).
Activity calls are given as the source filed them. No cut-off for these calls is given here.

Molecular target: Mitogen-activated protein kinase 14 (Mus musculus, UniProt P47811)
Assay: (§1) Inhibition of kinase tracer 199 binding to mouse inactive p38alpha (2 to 349 residues) expressed in Escherichia coli by microscale thermophoresis assay

Mitogen-activated protein kinase 14, sequence (P47811 whole entry, the tested form may be a part): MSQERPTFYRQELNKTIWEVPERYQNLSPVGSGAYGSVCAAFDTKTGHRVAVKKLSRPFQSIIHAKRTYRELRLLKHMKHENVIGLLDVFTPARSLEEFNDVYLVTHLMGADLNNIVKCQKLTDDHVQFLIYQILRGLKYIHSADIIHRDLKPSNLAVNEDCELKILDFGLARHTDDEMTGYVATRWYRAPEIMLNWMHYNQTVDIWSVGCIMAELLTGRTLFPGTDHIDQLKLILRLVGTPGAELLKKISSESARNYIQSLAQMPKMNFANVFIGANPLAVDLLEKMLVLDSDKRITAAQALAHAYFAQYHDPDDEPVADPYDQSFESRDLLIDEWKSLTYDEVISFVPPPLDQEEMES

Row | Compound | Ki [µM]
1 | Cc1ccccc1-n1nc(C(C)(C)C)cc1NC(=O)Nc1ccc(Cl)cc1 | 0.73
2 | CC(C)(C)c1cc(NC(=O)Nc2ccc(Cl)cc2)n(-c2ccccc2)n1 | 0.1
3 | Cc1ccc(-n2nc(C(C)(C)C)cc2NC(=O)Nc2ccc(Cl)cc2)cc1 | 0.03
4 | Cc1cccc(-n2nc(C(C)(C)C)cc2NC(=O)Nc2ccc(Cl)cc2)c1 | 0.02

Molecular target: Mitogen-activated protein kinase 14 (Mus musculus) (UniProt P47811)
Sequence (P47811 whole entry): as the sequence (P47811 whole entry, the tested form may be a part) above
Assay: as §1

Row | Compound | inhibition
5 | CC(C)(C)c1cc(NC(=O)Nc2ccc(Cl)cc2)n(-c2ccc(Cl)cc2)n1 | Active
6 | CC(C)(C)c1cc(NC(=O)Nc2ccc(Cl)cc2)n(-c2ccccc2F)n1 | Active
7 | CC(C)(C)c1cc(NC(=O)Nc2ccc(Cl)cc2)n(-c2ccc(F)cc2)n1 | Active
8 | COc1ccc(-n2nc(C(C)(C)C)cc2NC(=O)Nc2ccc(Cl)cc2)cc1 | Active
9 | COc1ccccc1-n1nc(C(C)(C)C)cc1NC(=O)Nc1ccc(Cl)cc1 | inactive
10 | CC(C)(C)c1cc(NC(=O)Nc2ccc(Cl)cc2)n(-c2ccccc2Cl)n1 | inactive
